Laboratory results reported in article PMC12263422, “Cryo-EM structure of the human THIK-1 K2P K^+ channel reveals a lower Y gate regulated by lipids and anesthetics” (Nature Structural & Molecular Biology, 2025).
Substitutions are numbered along the chain they refer to. Where “and” joins values, the source holds several entries; their conditions need not be identical. Equal values may be shown once. Read-outs that look alike come from different tables or passages of the source.

Columns and labels:
THIK-1 R87D = target: T1, THIK-1 R87D (Homo sapiens, UniProt Q9HB14, R87D); assay: Macroscopic inside-out excised patch recordings, oocytes, THIK-1 R87D mutant; type: cell-based
T1 construct: expressed in transfected cells; host or cells: Xenopus oocytes (mRNA injection)
T1 sequence (Q9HB14 1-408 R87D): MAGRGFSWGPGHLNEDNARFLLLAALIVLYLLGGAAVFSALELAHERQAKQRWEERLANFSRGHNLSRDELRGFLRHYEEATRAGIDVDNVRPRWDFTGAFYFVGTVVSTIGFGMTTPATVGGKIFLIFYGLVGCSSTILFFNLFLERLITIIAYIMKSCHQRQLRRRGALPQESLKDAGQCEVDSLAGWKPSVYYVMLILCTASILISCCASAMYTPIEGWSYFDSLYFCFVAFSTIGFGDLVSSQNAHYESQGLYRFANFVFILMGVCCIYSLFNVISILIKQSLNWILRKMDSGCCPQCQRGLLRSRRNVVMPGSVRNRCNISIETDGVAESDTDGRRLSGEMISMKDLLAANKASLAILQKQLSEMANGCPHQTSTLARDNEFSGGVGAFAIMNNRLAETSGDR
Description: (§1) Human K2P13.1 THIK-1 (GenBank accession number: NM_022054) and human K2P12.1 THIK-2 (NM_022055.1) were used in this study. For functional expression studies, the respective K^+ channel subtype coding sequences were subcloned into the oocyte expression vector pSGEM or the dual-purpose expression vector pFAW[41] and verified by sequencing. All mutant channels were obtained by site-directed mutagenesis and verified by sequencing. To increase surface expression and macroscopic currents, measurements of THIK-2 channels used a mutated ER retention motif, (R11A R12A R14A R15A R16A; THIK-2*)[20]. Vector DNA was linearized with NheI or MluI, and mRNA was synthesized in vitro using the SP6 or T7 AmpliCap Max High Yield Message Maker Kit (Cellscript, USA) or HiScribe T7 ARCA mRNA Kit (New England Biolabs).
(§2) Two-electrode voltage–clamp (TEVC) studies were performed in Xenopus oocytes. All animal use conformed to the Guide for the Care and Use of Laboratory Animals (NIH Publication 85–23), and all experiments using Xenopus toads were approved by the local ethics panels. Oocytes were stored at 17 °C in ND96 recording solution composed of (in mM): 96 NaCl, 2 KCl, 1.8 CaCl2, 1 MgCl2, 5 HEPES (pH 7.5 adjusted with NaOH and HCl), supplemented with Na-pyruvate (275 mg L^–1), theophylline (90 mg L^–1) and gentamicin (50 mg L^–1). Oocytes were injected with 1 ng mRNA for WT or mutant channels, and were incubated for 24–48 h at 17 °C. Two-electrode voltage clamp recordings were then performed as previously described[42],[43]. For macroscopic patch–clamp measurements, oocytes were obtained as described above incubated at 17 °C in a solution containing (mM): 54 NaCl, 30 KCl, 2.4 NaHCO3, 0.82 MgSO4 ×7 H2O, 0.41 CaCl2, 0.33 Ca(NO3)2 ×4 H2O and 7.5 TRIS (pH 7.4 adjusted with NaOH and HCl) for 1–4 days before use. Excised patch recordings in inside-out configuration conditions were performed at room temperature. Patch pipettes were made from thick-walled borosilicate glass GB 200TF-8P (Science Products), had resistances of 0.2–0.5 MΩ (tip diameter, 10–25 µm) and filled with a pipette solution (in mM): 120 KCl, 10 HEPES and 3.6 CaCl2 (pH 7.4 adjusted with KOH and HCl). Intracellular bath solutions and compounds were applied to the cytoplasmic side of excised patches for the various K^+ channels through a gravity flow multi-barrel pipette system. The intracellular solution had the following composition (in mM): 120 KCl, 10 HEPES, 2 EGTA and 1 pyrophosphate (pH adjusted with KOH and HCl). Currents were recorded with an EPC10 amplifier (HEKA Electronics) and sampled at 10 kHz or higher, with filtering set to 3 kHz (–3 dB) or higher, as appropriate for sampling rate. For measurements of GPCR activation, whole-cell currents were recorded for THIK-1 in transiently transfected HEK-293 cells. Cells were stimulated by a ramp protocol between −100 and +60 mV (holding potential, −80 mV). The pipette solution was composed of (in mM): 140 KCl, 2 MgCl2, 1 CaCl2, 2.5 EGTA and 10 HEPES (pH 7.3 adjusted with KOH and HCl). The extracellular bath solution had the following composition (in mM): 135 NaCl, 5 KCl, 2 MgCl2, 2 CaCl2, 10 glucose and 10 HEPES pH (pH 7.3 adjusted with NaOH and HCl). Oxotremorine M (Oxo-M) was added to extracellular bath solution to obtain the final concentration. Single-channel currents were recorded with an Axopatch 200B amplifier through a Digidata 1440A digitizer (Molecular Devices). Data were filtered at 2 kHz and recorded at a 200-kHz sampling rate with the program Clampex (Molecular Devices). Pipette solution and bath solution for cell-attached recordings contained (in mM): 140 KCl, 2 MgCl2, 1 CaCl2 and 10 HEPES (pH 7.4 adjusted with KOH and HCl). For inside-out recordings, the bath solution contained (in mM): 140 KCl, 2 MgCl2, 1 CaCl2 and 10 HEPES (pH 7.2 adjusted with KOH and HCl). All experiments were conducted at room temperature. […]

THIK-1 V269A = target: T2, THIK-1 V269A (Homo sapiens, UniProt Q9HB14, V269A); assay: Inside-out excised patch recordings, oocytes, THIK-1 V269A mutant; type: cell-based; conditions: for IC50: read-out: TPenA IC50
T2 construct: expressed in transfected cells; host or cells: Xenopus oocytes (mRNA injection)
T2 sequence (Q9HB14 1-408 V269A): T1 sequence (Q9HB14 1-408 R87D) with D87R, V269A
Description: as §1, §2

Structure (SMILES) | Inhibition (%) (THIK-1 R87D; 3.0 mM halothane, R87D, individual recordings) | inhibition at 3000 µM (THIK-1 R87D; 3.0 mM halothane, R87D, mean) [%] | inhibition at 152 µM (THIK-1 R87D; THIK-1 R87D, 0.152 mM halothane) [%] | inhibition at 304 µM (THIK-1 R87D; THIK-1 R87D, 0.304 mM halothane) [%] | inhibition at 1520 µM (THIK-1 R87D; THIK-1 R87D, 1.52 mM halothane) [%] | inhibition at 15200 µM (THIK-1 R87D; THIK-1 R87D, 15.2 mM halothane) [%] | Normalized currents (THIK-1 V269A; THIK-1 V269A, 1 µM TPenA) | Normalized currents (THIK-1 V269A; THIK-1 V269A, 4 µM TPenA) | Normalized currents (THIK-1 V269A; THIK-1 V269A, 15.6 µM TPenA) | Normalized currents (THIK-1 V269A; THIK-1 V269A, 62.5 µM TPenA) | Normalized currents (THIK-1 V269A; THIK-1 V269A, 250 µM TPenA) | Normalized currents (THIK-1 V269A; THIK-1 V269A, 1000 µM TPenA) | Normalized currents (THIK-1 V269A; THIK-1 V269A, 4000 µM TPenA) | IC50 (THIK-1 V269A; THIK-1 V269A, mean) [µM] | IC50 (THIK-1 V269A; V269A mutant) [µM]
FC(F)(F)C(Cl)Br (stereo not drawn) [halothane] | 54.110% and 64.133% and 70.295% and 57.409% and 74.945% and 46.769% and 63.754% and 70.637% and 69.367% and 64.901% and 58.344% and 70.045% and 57.366% and 63.096% and 56.800% | 62.8 | 14.3 | 26 | 53.8 | 84.1 | – | – | – | – | – | – | – | – | –
CCCCC[N+](CCCCC)(CCCCC)CCCCC [TPenA, tetrapentylammonium] | – | – | – | – | – | – | 1.00 | 0.97 | 0.93 | 0.87 | 0.78 | 0.65 | 0.45 | 2200 | 2200
